In patent US20230142126A1, “METHODS AND COMPOSITIONS FOR THE TREATMENT OF VIRAL DISEASES” (priority 2020, published 2023):

Columns and labels:
[1] = test system: SARS-CoV-2 (strain: BEI_USA-WA1/2020); experiment: microbe, parasite or virus in culture; assay type: cell-based; conditions: Calu-3, 4 h pretreatment, MOI 0.01, 48 h post-infection (FIG. 2, FIG. 3)
SARS-CoV-2 = experiment: microbe, parasite or virus in culture; assay type: cell-based; conditions: for EC50: estimated from 1 and 10 µM

Compound | antiviral activity (percentage of virus infected cells vs concentration) [1] | % Inhibition (SARS-CoV-2; 1 µM (Table 7)) | % Inhibition (SARS-CoV-2; 10 µM (Table 7)) | EC50 (SARS-CoV-2; Calu-3, plaque assay) | inhibition at 1 µM (SARS-CoV-2; Severe acute respiratory syndrome coronavirus 2, Calu-3, 1 µM (Table 7), read-out: % Inhibition) | inhibition at 10 µM (SARS-CoV-2; Severe acute respiratory syndrome coronavirus 2, Calu-3, 10 µM (Table 7), read-out: % Inhibition) | EC90 (SARS-CoV-2; Severe acute respiratory syndrome coronavirus 2, Calu-3, plaque assay, estimated) | EC50 (SARS-CoV-2; Severe acute respiratory syndrome coronavirus 2, Calu-3, plaque assay)
C[C@@H]1CS/C(=N\NC(=O)C(=O)[C@@H](NC(=O)C2CCCCCC2)C2CCOCC2)N1C [ONO-5334] | demonstrated antiviral activity | 79% | 100% | < 1000 nM |  |  |  | 
CC(C)(F)C[C@H](N[C@@H](c1ccc(-c2ccc(S(C)(=O)=O)cc2)cc1)C(F)(F)F)C(=O)NC1(C#N)CC1 [Odanacatib] |  |  |  |  | 48.4% | 97.1% | 1000 to 10000 nM | ~1000 nM
